Holding throughout (assay type): biochemical
One experiment has as its target T1, recombinant GTase A233 (Arabidopsis thaliana, UniProt Q8W491).
T1 construct: made in house; host or cells: E. coli
The experiment can be described thus: Specific activity of recombinant GTase producing O-glucosides against lignin precursors (HPLC). To be noted: 30° C.; ND = not detected.

Another experiment deals with T2, recombinant GTase A41 (Arabidopsis thaliana, UniProt Q5XF20).
T2 construct: made in house; host or cells: E. coli
T2 sequence (Q5XF20 7-490): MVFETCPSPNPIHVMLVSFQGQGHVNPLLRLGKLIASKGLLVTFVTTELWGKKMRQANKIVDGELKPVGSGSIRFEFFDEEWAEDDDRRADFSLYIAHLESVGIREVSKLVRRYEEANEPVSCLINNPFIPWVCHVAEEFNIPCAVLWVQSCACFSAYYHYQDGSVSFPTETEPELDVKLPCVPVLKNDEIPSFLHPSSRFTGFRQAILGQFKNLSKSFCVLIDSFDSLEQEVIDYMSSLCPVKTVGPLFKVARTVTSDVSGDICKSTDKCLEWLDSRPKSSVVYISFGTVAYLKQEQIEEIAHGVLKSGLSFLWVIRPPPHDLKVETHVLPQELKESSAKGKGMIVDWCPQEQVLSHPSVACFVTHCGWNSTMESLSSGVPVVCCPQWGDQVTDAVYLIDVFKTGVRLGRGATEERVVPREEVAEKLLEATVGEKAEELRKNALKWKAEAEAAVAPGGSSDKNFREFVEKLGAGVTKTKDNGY
Description: Specific activity of recombinant GTase producing glucose ester against lignin precursors (HPLC). To be noted: 5 mM UDPG, 0.2 μg GTase, 200 μl, 20° C., 30 min.

The next experiment has as its target T3, recombinant GTase A062 (Arabidopsis thaliana, UniProt Q9LR44).
T3 construct: made in house; host or cells: E. coli
T3 sequence (Q9LR44 1-469): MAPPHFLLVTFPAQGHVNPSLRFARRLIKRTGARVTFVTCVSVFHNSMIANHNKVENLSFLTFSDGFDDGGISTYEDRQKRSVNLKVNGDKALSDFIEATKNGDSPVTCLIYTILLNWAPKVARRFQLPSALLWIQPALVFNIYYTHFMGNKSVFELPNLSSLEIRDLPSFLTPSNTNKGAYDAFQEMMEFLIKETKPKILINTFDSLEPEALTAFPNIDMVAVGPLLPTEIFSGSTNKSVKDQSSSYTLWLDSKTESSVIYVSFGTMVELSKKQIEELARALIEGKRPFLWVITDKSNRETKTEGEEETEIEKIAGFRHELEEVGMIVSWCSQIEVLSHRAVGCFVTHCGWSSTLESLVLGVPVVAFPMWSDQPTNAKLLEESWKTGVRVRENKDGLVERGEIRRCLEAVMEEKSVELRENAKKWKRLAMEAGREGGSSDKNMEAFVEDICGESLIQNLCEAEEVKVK
The description is as above. The following applies: 0.5 ml of potential substrates, 5 mM UDPG, 0.2 μg GTase, 200 μl, 20° C., 30 min.

For the next experiment, the target named is T4, recombinant GTase A911 (Arabidopsis thaliana, UniProt O22182).
T4 sequence (O22182 1-456): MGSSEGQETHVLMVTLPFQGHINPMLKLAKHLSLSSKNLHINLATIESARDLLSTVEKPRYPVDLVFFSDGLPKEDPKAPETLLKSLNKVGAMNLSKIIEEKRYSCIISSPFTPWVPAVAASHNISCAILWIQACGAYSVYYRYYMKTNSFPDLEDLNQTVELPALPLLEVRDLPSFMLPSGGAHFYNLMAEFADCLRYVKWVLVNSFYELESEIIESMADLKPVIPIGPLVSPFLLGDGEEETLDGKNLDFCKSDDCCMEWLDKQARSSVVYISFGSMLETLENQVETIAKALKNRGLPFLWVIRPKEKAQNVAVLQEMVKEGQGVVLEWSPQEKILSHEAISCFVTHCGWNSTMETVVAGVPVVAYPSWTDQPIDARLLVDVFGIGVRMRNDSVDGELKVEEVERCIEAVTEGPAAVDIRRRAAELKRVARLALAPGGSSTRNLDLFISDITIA
The description is as above. Also noted: made in house; host or cells: E. coli. To be noted: 0.5 ml of potential substrates, 5 mM UDPG, 0.2 μg GTase, 200 μl, 20° C., 30 min.

In a further experiment the target is T5, recombinant GTase A320 (Arabidopsis thaliana, UniProt Q9LVF0).
T5 construct: made in house; host or cells: E. coli
T5 sequence (Q9LVF0 1-496): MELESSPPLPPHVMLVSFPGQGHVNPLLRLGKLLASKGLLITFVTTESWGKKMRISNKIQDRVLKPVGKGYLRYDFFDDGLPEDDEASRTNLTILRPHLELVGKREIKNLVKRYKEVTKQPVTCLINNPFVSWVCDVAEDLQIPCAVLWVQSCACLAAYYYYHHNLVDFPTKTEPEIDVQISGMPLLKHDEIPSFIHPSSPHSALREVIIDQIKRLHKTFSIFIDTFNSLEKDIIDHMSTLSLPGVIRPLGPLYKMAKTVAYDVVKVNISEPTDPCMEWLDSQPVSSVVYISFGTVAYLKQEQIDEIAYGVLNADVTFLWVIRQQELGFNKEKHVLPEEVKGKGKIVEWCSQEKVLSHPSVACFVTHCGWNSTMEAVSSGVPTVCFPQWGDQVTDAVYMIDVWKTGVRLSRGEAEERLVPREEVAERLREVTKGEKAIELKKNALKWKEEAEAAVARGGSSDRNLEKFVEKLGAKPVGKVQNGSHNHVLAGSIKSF
The experiment is described as above. The following applies: 5 mM UDPG, 0.2 μg GTase, 200 μl, 20° C., 30 min.

The next experiment addresses T6, recombinant GTase A42 (Arabidopsis thaliana, UniProt O23401).
T6 construct: made in house; host or cells: E. coli
T6 sequence (O23401 1-479): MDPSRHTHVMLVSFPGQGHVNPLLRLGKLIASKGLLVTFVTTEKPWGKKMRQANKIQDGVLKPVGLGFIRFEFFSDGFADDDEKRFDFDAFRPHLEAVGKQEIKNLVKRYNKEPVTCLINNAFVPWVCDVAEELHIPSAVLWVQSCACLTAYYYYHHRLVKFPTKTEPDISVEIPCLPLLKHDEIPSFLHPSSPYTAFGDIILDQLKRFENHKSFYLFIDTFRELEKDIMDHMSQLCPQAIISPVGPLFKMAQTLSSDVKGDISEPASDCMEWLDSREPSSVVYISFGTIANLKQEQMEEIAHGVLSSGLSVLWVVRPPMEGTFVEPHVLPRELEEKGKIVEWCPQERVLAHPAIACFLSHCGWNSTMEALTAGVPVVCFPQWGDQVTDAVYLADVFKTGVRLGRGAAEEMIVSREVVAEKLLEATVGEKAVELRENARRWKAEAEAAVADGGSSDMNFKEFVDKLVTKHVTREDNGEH
Described as above. The following applies: 0.5 ml of potential substrates, 5 mM UDPG, 0.2 μg GTase, 200 μl, 20° C., 30 min.

For the compound `O=C(O)/C=C/c1ccc(O)cc1` [p-coumaric acid], the “Specific activity of A233 (substrate converted to 4-O-glucoside)” value at recombinant GTase A233 was determined as 0.09 nkat/mg. At recombinant GTase A41, the “Specific activity of A41 (substrate converted to glucose ester)” value stood at 13.53 nkat/mg. In addition, the “Specific activity of A062 (substrate converted to glucose ester)” value at recombinant GTase A062 worked out at 2.54 nkat/mg. Besides, on recombinant GTase A911, the “Specific activity of A911 (substrate converted to glucose ester)” value came out at 4.31 nkat/mg. In addition, the “Specific activity of A320 (substrate converted to glucose ester)” value on recombinant GTase A320 came out at 0.05 nkat/mg. Moreover, on recombinant GTase A42, the “Specific activity of A42 (substrate converted to glucose ester)” value is 4.69 nkat/mg.
In the case of `COc1cc(/C=C/C(=O)O)ccc1O` [Ferulic acid, ferulic acid], the “Specific activity of A233 (substrate converted to 4-O-glucoside)” value on recombinant GTase A233 amounted to 0.37 nkat/mg. Further, the “Specific activity of A41 (substrate converted to glucose ester)” value on recombinant GTase A41 worked out at 6.64 nkat/mg. Moreover, at recombinant GTase A062, the “Specific activity of A062 (substrate converted to glucose ester)” value amounted to 0.08 nkat/mg. The “Specific activity of A911 (substrate converted to glucose ester)” value at recombinant GTase A911 was 2.88 nkat/mg. In addition, the “Specific activity of A320 (substrate converted to glucose ester)” value at recombinant GTase A320 is 0.54 nkat/mg. Moreover, the “Specific activity of A42 (substrate converted to glucose ester)” value at recombinant GTase A42 came out at 15.63 nkat/mg.

(Values after US7335814B2, “Transgenic cells expressing glucosyltransferase nucleic acids” (The University of York, priority 2000, dated 2008).)
